Where two headings read alike, the source gives them in different places.
What was measured:
[1] = Metabolic stability in human liver microsomes (LC-MS/MS); format: in vitro ADME
Description: An approach to address this issue of bioavailability is to improve metabolic stability. The para-position of the phenyl ring in acetanilide moieties is susceptible to oxidation. […] To test this, we altered the substitution pattern on the phenyl ring by moving the F atom from the ortho in 84 to the para position (Figure 1A). The regioisomer 51-106, resulting from the above change, was synthesized by coupling 3-(1-methyl-1H-pyrazol-4-yl)quinoxalin-6-amine (1) with freshly prepared 1-fluoro-4-isocyanato-2-(trifluoromethyl)benzene in dichloromethane (Scheme 1). To determine the metabolic stability of 51-106, we incubated 51-106 and analog 84 with human (pooled male and female) liver microsomes and monitored their stability using liquid chromatography–tandem mass spectrometry.
The in vitro metabolic stability of 51-106 was determined using human liver […] (XenoTech, LLC; Kansas City, KS, USA), following previously reported methods. […] Sample analysis was performed by liquid chromatography–tandem mass spectrometry (SCIEX QTRAP 4000 LC-MS/MS System, SCIEX, Framingham, MA, USA).

[2] = Pharmacokinetic studies, oral and intravenous dosing; format: in vivo, CD1 mice; settings: for MRT inf: read-out: MRT 0-∞
Procedure: Next, we conducted pharmacokinetic (PK) studies with 51-106. Briefly, mice were dosed either intravenously (IV) or orally with 10 mg/kg of 51-106 and sampled at 0.083, 0.25, 0.5, 1, 2, 4, 8, and 24 h. […] This was accomplished by strategic placement of fluorine atoms at metabolically vulnerable sites on the molecule.
Pharmacokinetic studies (10 mg/kg oral and intravenous dosing) were performed following previously reported methods. Sample analysis was performed by liquid chromatography–tandem mass spectrometry (SCIEX QTRAP 4000 LC-MS/MS System). The pharmacokinetic parameters were determined using non-compartmental analyses module of WinNonlin 1.5.

NPM1 phosphorylation = experiment: TMT phosphoproteomics of PANC-1 cells; format: cell-based; settings: 10 μM, 2 h, versus DMSO
Procedure: Next, we wanted to assess the effects of 51-106 on the early phosphorylation events associated with transient MAP3K1 inhibition. To this end, we conducted global proteomic and phosphoproteomic analyses of PANC-1 cells treated with varying doses of 51-106 (10, 5, 2.5, 1.25, 0.625, and 0 μM) for 2 h using a tandem mass tag (TMT)-based multiplexing strategy (Figure 4). Across all conditions, a total of 7028 proteins and 22,843 phosphosites were quantified and successfully mapped to known protein sequences. Significance cutoffs of >0.32 or <−0.32 log2FC of 51-106 compared to DMSO and FDR < 0.05 were used to analyze differences in total and phosphorylated protein levels between treatment and control samples using RokaiXplorer (Supplementary Figure S3a).
PANC-1 (1 × 10^7) cells were seeded into T125 flasks (FB012939, Fisher Scientific) and allowed to attach overnight in a humidified 5% CO2 incubator at 37 °C. Drug working solutions were prepared from 10 mM DMSO stocks. 51-106 was added in 4 dilutions, in triplicates. […]
Global proteome and phosphopeptide-enriched fractions were analyzed on an Orbitrap Eclipse mass spectrometer using UltiMate 3000 RSLC nano system for online separation of peptides in trap and elute configuration (Thermo Scientific, San Jose, CA, USA). […] Survey MS scans were recorded in Orbitrap mass analyzer with 375 to 1500 m/z scan range at 120,000 resolution. […]

[3] = mouse, in vivo, CD1 mice, 10 mg/kg, Intravenous
[4] = mouse, in vivo, CD1 mice, 10 mg/kg, Oral

## Cn1cc(-c2cnc3ccc(NC(=O)Nc4ccc(F)c(C(F)(F)F)c4)cc3n2)cn1 [51-106, 1-(4-Fluoro-3-(trifluoromethyl)phenyl)-3-(3-(1-methyl-1H-pyrazol-4-yl)quinoxalin-6-yl)urea]
[1]; 51-106 versus analog 84
  improvement in t½ in human liver microsomes: ~ 3.7 fold
[1]; Species Human
  T1/2 (half-life) in human liver microsomes: ~ 50 h
[1]; Species Human, human liver microsomes
  Hepatic Extraction Ratio (E): 0.03
[1]; both sexes, human, liver microsomes, Species Human, read-out: T1/2 (half-life) in human liver microsomes (converted)
  half-life: 50.2 h
[2]; 51-106 compared to analog 84
  improvement of oral bioavailability: ~ 3.5 fold
  improvement of t1/2 in mice: ~ 1.4 fold
[2]; CD1, mouse, in vivo, po, 10 mg/kg, CD1 mice, 10 mg/kg, Oral, read-out: Bioavailability (%F)
  bioavailability: 62.3%
[2]; CD1 mice, 10 mg/kg, Oral
  Bioavailability (%F): ~62%
[2]; [3]
  AUC(0-inf): 9.12 ± 0.755 µg·h/mL
  AUC(0-t): 8.96 ± 0.812 µg·h/mL
  Cmax: 4.38 ± 0.447 µg/mL
  half-life: 1.7 ± 0.3 h
  MRT inf: 2.2 ± 0.3 h
[2]; mouse, in vivo, CD1 mice, 10 mg/kg, Intravenous, read-out: Vss
  Vd: 2.5 ± 0.3 L/kg
[2]; [4]
  AUC(0-inf): 5.68 ± 1.93 µg·h/mL
  AUC(0-t): 4.58 ± 2.5 µg·h/mL
  Cmax: 0.689 ± 0.19 µg/mL
  Tmax: 2.7 h
  half-life: 3.5 h
  MRT inf: 6.4 ± 1.5 h
NPM1 phosphorylation
  decrease in NPM1 S227 phosphorylation: 3.5 fold
